# Results from patent EP1247803A2, “Indolinone compounds suitable for modulation of protein kinases” (Sugen, Inc., priority 1996, dated 1998).
# Assays:
# FLK-1 receptor = biological target: T1, FLK-1 receptor (Mus musculus, UniProt P35918); assay: FLK-1 ELISA (kinase activity of the FLK-1 receptor in FLK-1/NIH3T3 cells, VEGF stimulated); assay type: cell-based
# T1 construct: expressed in transfected cells; host or cells: NIH3T3 C7#3
# Method in brief: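 An ELISA using affinity-purified rabbit anti-FLK-1 antiserum on anti-rabbit IgG-coated plates measured VEGF-stimulated FLK-1 kinase activity. NIH3T3 C7#3 cells carrying FLK-1 were serum-starved (0.1% FBS) overnight, then exposed to compound (final 1:200 dilution, 0.5% DMSO) for two hours at 37 °C.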
# PDGF-R = PDGF-R (Homo sapiens, UniProt P09619); assay: PDGF-R ELISA; assay type: cell-based
# Chain of PDGF-R (P09619 33-1106, species assumed): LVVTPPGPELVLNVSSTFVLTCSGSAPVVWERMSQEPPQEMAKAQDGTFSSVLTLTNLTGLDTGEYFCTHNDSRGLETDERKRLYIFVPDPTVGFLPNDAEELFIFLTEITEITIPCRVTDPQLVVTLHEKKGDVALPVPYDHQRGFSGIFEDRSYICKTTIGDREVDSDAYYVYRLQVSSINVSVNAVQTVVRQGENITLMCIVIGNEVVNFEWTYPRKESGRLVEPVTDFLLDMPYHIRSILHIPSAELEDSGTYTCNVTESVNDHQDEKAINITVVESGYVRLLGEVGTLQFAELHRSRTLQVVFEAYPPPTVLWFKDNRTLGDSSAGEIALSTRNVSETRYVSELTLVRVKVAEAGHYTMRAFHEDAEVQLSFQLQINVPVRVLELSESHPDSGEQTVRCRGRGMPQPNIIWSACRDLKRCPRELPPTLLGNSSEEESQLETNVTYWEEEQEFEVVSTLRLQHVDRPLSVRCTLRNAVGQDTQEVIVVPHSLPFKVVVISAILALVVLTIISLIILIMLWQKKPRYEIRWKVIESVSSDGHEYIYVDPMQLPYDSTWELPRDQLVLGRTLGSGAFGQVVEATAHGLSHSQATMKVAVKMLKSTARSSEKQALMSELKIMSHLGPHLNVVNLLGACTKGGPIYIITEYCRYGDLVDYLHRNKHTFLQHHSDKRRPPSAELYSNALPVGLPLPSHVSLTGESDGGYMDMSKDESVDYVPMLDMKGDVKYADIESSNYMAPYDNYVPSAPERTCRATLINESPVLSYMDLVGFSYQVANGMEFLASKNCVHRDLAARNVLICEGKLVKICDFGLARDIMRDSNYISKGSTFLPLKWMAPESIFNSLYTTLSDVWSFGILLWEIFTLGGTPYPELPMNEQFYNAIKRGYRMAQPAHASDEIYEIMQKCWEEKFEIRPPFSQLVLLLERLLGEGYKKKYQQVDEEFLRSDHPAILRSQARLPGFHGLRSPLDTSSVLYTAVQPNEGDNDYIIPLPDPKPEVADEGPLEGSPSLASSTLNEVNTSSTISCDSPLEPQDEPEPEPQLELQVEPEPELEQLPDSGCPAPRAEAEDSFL
# From the text: A PDGF-R ELISA is described in International Patent Publication No. WO 96/40116, published December 19, 1996 by Tang et al.
# T1 sequence (P35918 20-1345): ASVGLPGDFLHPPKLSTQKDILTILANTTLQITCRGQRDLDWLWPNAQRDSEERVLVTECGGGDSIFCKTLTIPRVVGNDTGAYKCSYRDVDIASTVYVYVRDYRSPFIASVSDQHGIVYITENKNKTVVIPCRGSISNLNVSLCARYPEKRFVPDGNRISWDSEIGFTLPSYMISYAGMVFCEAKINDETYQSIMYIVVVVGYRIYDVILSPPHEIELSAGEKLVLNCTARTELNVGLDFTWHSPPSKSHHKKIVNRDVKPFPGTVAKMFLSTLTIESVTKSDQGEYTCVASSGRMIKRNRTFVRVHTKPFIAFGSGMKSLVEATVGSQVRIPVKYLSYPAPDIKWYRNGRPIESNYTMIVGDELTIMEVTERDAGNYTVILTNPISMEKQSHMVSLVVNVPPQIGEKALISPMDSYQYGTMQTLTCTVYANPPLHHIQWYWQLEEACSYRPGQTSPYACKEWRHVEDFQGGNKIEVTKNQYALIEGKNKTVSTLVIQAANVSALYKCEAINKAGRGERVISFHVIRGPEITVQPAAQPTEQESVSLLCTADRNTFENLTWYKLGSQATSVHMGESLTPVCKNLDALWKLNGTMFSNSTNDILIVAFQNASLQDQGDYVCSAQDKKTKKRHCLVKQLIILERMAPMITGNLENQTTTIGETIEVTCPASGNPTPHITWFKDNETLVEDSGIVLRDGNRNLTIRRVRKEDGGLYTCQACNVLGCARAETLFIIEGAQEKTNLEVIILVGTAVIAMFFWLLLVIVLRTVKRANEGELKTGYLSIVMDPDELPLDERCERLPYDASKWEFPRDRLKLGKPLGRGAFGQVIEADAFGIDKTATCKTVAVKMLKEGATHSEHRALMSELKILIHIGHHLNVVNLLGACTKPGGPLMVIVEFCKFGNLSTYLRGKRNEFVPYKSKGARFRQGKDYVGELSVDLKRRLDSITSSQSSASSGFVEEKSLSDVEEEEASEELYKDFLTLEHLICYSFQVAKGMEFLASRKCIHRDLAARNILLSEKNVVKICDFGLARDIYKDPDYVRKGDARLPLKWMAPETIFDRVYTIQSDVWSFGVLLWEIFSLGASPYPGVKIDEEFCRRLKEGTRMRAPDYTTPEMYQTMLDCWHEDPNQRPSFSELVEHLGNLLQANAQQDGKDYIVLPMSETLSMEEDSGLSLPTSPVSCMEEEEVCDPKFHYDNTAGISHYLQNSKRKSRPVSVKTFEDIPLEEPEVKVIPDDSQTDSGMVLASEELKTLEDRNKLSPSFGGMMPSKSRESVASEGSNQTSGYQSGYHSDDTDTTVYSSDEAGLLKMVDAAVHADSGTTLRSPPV
structure (smiles),measurement,setting,value
O=C1Nc2ccc(S(=O)(=O)Nc3ccc(C(F)(F)F)cc3)cc2C1=Cc1cc(Cl)ccc1O [10734/E04],Fik Kinase %Inhibition,FLK-1 receptor,10.7%
same,PDGF Kinase %Inhibition,PDGF-R,26.7%
O=C1Nc2ccc(CCCl)cc2C1=Cc1ccc(Br)s1 [10734/G11],Fik Kinase %Inhibition,FLK-1 receptor,8.7%
same,PDGF Kinase %Inhibition,PDGF-R,-25.4%
O=C1Nc2ccc(CCCl)cc2C1=Cc1cc(Br)cc(Br)c1O [10734/G07],Fik Kinase %Inhibition,FLK-1 receptor,21.9%
same,PDGF Kinase %Inhibition,PDGF-R,-25.0%
O=C1Nc2ccc(S(=O)(=O)Nc3ccc(C(F)(F)F)cc3)cc2C1=Cc1cccc(F)c1O [10734/E08],Fik Kinase %Inhibition,FLK-1 receptor,26.6%
same,PDGF Kinase %Inhibition,PDGF-R,13.0%
O=C1Nc2ccc(CCCl)cc2C1=Cc1cc(Cl)cc(Cl)c1O [10734/G03],Fik Kinase %Inhibition,FLK-1 receptor,18.7%
same,PDGF Kinase %Inhibition,PDGF-R,-3.8%
CC(C)(C)c1ccc(C=C2C(=O)Nc3ccc(S(=O)(=O)N4CCOCC4)cc32)cc1 [10734/F10],Fik Kinase %Inhibition,FLK-1 receptor,14.8%
same,PDGF Kinase %Inhibition,PDGF-R,25.8%
O=C1Nc2ccc(CCCl)cc2C1=Cc1ccc(O)c(Br)c1 [10734/G09],Fik Kinase %Inhibition,FLK-1 receptor,8.5%
same,PDGF Kinase %Inhibition,PDGF-R,-7.7%
O=C1Nc2ccc(CCCl)cc2C1=Cc1cccc(F)c1O [10734/G08],Fik Kinase %Inhibition,FLK-1 receptor,11.6%
same,PDGF Kinase %Inhibition,PDGF-R,0.2%
CCN(CC)c1ccc(C=C2C(=O)Nc3ccc(CCCl)cc32)c(O)c1 [10734/G05],Fik Kinase %Inhibition,FLK-1 receptor,7.4%
same,PDGF Kinase %Inhibition,PDGF-R,2.9%
O=C1Nc2ccc(S(=O)(=O)N3CCOCC3)cc2C1=Cc1ccc([N+](=O)[O-])cc1 [10734/F06],Fik Kinase %Inhibition,FLK-1 receptor,11.0%
same,PDGF Kinase %Inhibition,PDGF-R,-21.4%
CCN(CC)c1ccc(C=C2C(=O)Nc3ccc(S(=O)(=O)N4CCOCC4)cc32)c(O)c1 [10734/F05],Fik Kinase %Inhibition,FLK-1 receptor,9.8%
same,PDGF Kinase %Inhibition,PDGF-R,-1.1%
O=C1Nc2ccc(S(=O)(=O)Nc3ccc(C(F)(F)F)cc3)cc2C1=Cc1cc(Br)cc(Br)c1O [10734/E07],Fik Kinase %Inhibition,FLK-1 receptor,27.9%
same,PDGF Kinase %Inhibition,PDGF-R,8.2%
O=C1Nc2ccc(S(=O)(=O)Nc3ccc(C(F)(F)F)cc3)cc2C1=Cc1ccc(O)c(Br)c1 [10734/E09],Fik Kinase %Inhibition,FLK-1 receptor,8.0%
same,PDGF Kinase %Inhibition,PDGF-R,1.1%
O=C1Nc2ccc(CCCl)cc2C1=Cc1ccc([N+](=O)[O-])cc1 [10734/G06],Fik Kinase %Inhibition,FLK-1 receptor,16.5%
same,PDGF Kinase %Inhibition,PDGF-R,-18.8%
CCN(CC)c1ccc(C=C2C(=O)Nc3ccc(S(=O)(=O)Nc4ccc(C(F)(F)F)cc4)cc32)c(O)c1 [10734/E05],Fik Kinase %Inhibition,FLK-1 receptor,10.6%
same,PDGF Kinase %Inhibition,PDGF-R,17.9%
O=C1Nc2ccc(S(=O)(=O)N3CCOCC3)cc2C1=Cc1cc(Cl)ccc1O [10734/F04],Fik Kinase %Inhibition,FLK-1 receptor,-2.6%
same,PDGF Kinase %Inhibition,PDGF-R,25.0%
O=C1Nc2ccc(S(=O)(=O)N3CCOCC3)cc2C1=Cc1cc(Br)cc(Br)c1O [10734/F07],Fik Kinase %Inhibition,FLK-1 receptor,6.6%
same,PDGF Kinase %Inhibition,PDGF-R,-5.1%
CCOc1cccc(C=C2C(=O)Nc3ccc(S(=O)(=O)N4CCOCC4)cc32)c1O [10734/F02],Fik Kinase %Inhibition,FLK-1 receptor,6.2%
same,PDGF Kinase %Inhibition,PDGF-R,10.4%
CC(C)(C)c1ccc(C=C2C(=O)Nc3ccc(S(=O)(=O)Nc4ccc(C(F)(F)F)cc4)cc32)cc1 [10734/E10],Fik Kinase %Inhibition,FLK-1 receptor,18.5%
same,PDGF Kinase %Inhibition,PDGF-R,29.8%
O=C1Nc2ccc(S(=O)(=O)N3CCOCC3)cc2C1=Cc1ccc(O)c(Br)c1 [10734/F09],Fik Kinase %Inhibition,FLK-1 receptor,-3.7%
same,PDGF Kinase %Inhibition,PDGF-R,-17.4%
CCOc1cccc(C=C2C(=O)Nc3ccc(CCCl)cc32)c1O [10734/G02],Fik Kinase %Inhibition,FLK-1 receptor,1.5%
same,PDGF Kinase %Inhibition,PDGF-R,14.8%
O=C1Nc2ccc(S(=O)(=O)Nc3ccc(C(F)(F)F)cc3)cc2C1=Cc1ccc(Br)s1 [10734/E11],Fik Kinase %Inhibition,FLK-1 receptor,19.2%
same,PDGF Kinase %Inhibition,PDGF-R,16.1%
CC(C)(C)c1ccc(C=C2C(=O)Nc3ccc(CCCl)cc32)cc1 [10734/G10],Fik Kinase %Inhibition,FLK-1 receptor,10.8%
same,PDGF Kinase %Inhibition,PDGF-R,9.9%
O=C1Nc2ccc(S(=O)(=O)N3CCOCC3)cc2C1=Cc1cccc(F)c1O [10734/F08],Fik Kinase %Inhibition,FLK-1 receptor,4.8%
same,PDGF Kinase %Inhibition,PDGF-R,-6.0%
O=C1Nc2ccc(S(=O)(=O)N3CCOCC3)cc2C1=Cc1cc(Cl)cc(Cl)c1O [10734/F03],Fik Kinase %Inhibition,FLK-1 receptor,4.2%
same,PDGF Kinase %Inhibition,PDGF-R,-24.1%
O=C1Nc2ccc(I)cc2C1=Cc1ccc(F)cc1 [10717/B05],Fik Kinase %Inhibition,FLK-1 receptor,1.0%
CCOC(=O)c1c(C)[nH]c(C=C2C(=O)Nc3ccc(CCCl)cc32)c1C [10718/G02],Fik Kinase %Inhibition,FLK-1 receptor,-2.5%
O=C1Nc2ccc(I)cc2C1=Cc1ccc(F)cc1C(F)(F)F [10719/B11],Fik Kinase %Inhibition,FLK-1 receptor,11.2%
CCc1c(C)[nH]c(C=C2C(=O)Nc3ccc(I)cc32)c1C [10719/B05],Fik Kinase %Inhibition,FLK-1 receptor,17.7%
O=C1Nc2ccc(S(=O)(=O)Nc3ccc(C(F)(F)F)cc3)cc2C1=Cc1ccc([N+](=O)[O-])cc1 [10734/E06],Fik Kinase %Inhibition,FLK-1 receptor,28.4%
same,PDGF Kinase %Inhibition,PDGF-R,13.5%
Cc1c(Br)ccc2c1C(=Cc1ccc(O)c(O)c1)C(=O)N2 [10719/C03],Fik Kinase %Inhibition,FLK-1 receptor,15.3%
Cc1c(O)ccc(C=C2C(=O)Nc3ccc(S(=O)(=O)N4CCOCC4)cc32)c1O [10718/F09],Fik Kinase %Inhibition,FLK-1 receptor,-3.0%
CCOC(=O)c1c(C)[nH]c(C=C2C(=O)Nc3ccc(S(=O)(=O)N4CCOCC4)cc32)c1C [10718/F02],Fik Kinase %Inhibition,FLK-1 receptor,20.1%
COc1ccc(C=C2C(=O)Nc3ccc(Br)c(C)c32)c(OC)c1 [10719/C04],Fik Kinase %Inhibition,FLK-1 receptor,59.9%
O=C1Nc2ccc(I)cc2C1=Cc1ccc(O)c(O)c1 [10719/B03],Fik Kinase %Inhibition,FLK-1 receptor,14.2%
COc1cc(Br)c(O)c(C=C2C(=O)Nc3ccc(CCCl)cc32)c1 [10718/G03],Fik Kinase %Inhibition,FLK-1 receptor,-4.7%
O=C1Nc2ccc(I)cc2C1=Cc1ccc(O)cc1 [10719/B07],Fik Kinase %Inhibition,FLK-1 receptor,12.5%
O=C1Nc2ccc(CCCl)cc2C1=Cc1cc(Cl)ccc1O [10734/G04],Fik Kinase %Inhibition,FLK-1 receptor,-1.1%
same,PDGF Kinase %Inhibition,PDGF-R,16.1%
O=C1Nc2ccc(S(=O)(=O)N3CCOCC3)cc2C1=Cc1ccc([N+](=O)[O-])o1 [10718/F11],Fik Kinase %Inhibition,FLK-1 receptor,10.1%
O=C1Nc2c(Br)cc(Br)cc2C1=Cc1ccc(F)cc1Cl [10719/A09],Fik Kinase %Inhibition,FLK-1 receptor,12.3%
O=C1Nc2ccc(CCCl)cc2C1=Cc1ccco1 [10718/G10],Fik Kinase %Inhibition,FLK-1 receptor,7.1%
CCOC(=O)CCc1c(C(=O)OCC)[nH]c(C=C2C(=O)Nc3ccc(CCCl)cc32)c1CC(=O)OCC [10718/G05],Fik Kinase %Inhibition,FLK-1 receptor,3.7%
CCOc1ccc(C=C2C(=O)Nc3ccc(Br)c(C)c32)cc1OC [10719/C02],Fik Kinase %Inhibition,FLK-1 receptor,4.1%
Cc1c(Br)ccc2c1C(=Cc1ccc(F)cc1Cl)C(=O)N2 [10719/C09],Fik Kinase %Inhibition,FLK-1 receptor,23.5%
COC(=O)c1[nH]c(C)c(C=C2C(=O)Nc3ccc(S(=O)(=O)N4CCOCC4)cc32)c1C(=O)OC [10718/F07],Fik Kinase %Inhibition,FLK-1 receptor,16.5%
O=C1Nc2ccc(I)cc2C1=Cc1cccs1 [10717/B03],Fik Kinase %Inhibition,FLK-1 receptor,-8.8%
